Measurements: patent US20250326769A1, “HETEROAROMATIC MACROCYCLIC ETHER CHEMOTHERAPEUTIC AGENTS” (Nuvalent, Inc., priority 2022, published 2025)

Legend:
Format in all cases: cell-based
Ba/F3 ETV6-TRKB = Ba/F3 ETV6-TRKB (Homo sapiens, UniProt Q16620); assay: Ba/F3 cell proliferation assay, ETV6-TRKB; settings: Ba/F3 stable cells, 72 hours, CellTiter-Glo; read-out: ETV6-TRKB IC50
From the text: (§1) Genes encoding EML4-ALK v1 (variant 1), EML4-ALK v1 G1202R, EML4-ALK v1 I1171IN, EML4-ALK v1 D1203N, EML4-ALK v1 I1171N/D1203N, and ETV6-TRKB were synthesized at GeneRay, cloned into the retroviral construct pMSCV-puro (Biovector), and packaged into retroviral particles. The virus was used to infect Ba/F3 cells (RIKEN) at multiplicity of infection=1 for 1 day. Infected cells were rescued in media (RPMI-1640 with 10% fetal bovine serum and 1% streptomycin and penicillin) supplemented with mouse IL-3 (10 ng/mL) for 2 days, and stable cell lines were selected by IL-3 withdrawal and puromycin (0.8 μg/mL) for 7 days. Monoclones were selected by single-cell dilution in IL-3-free medium containing puromycin (0.8 μg/mL). Transformation of desired genes was confirmed by Sanger sequencing and western blot using the following antibodies: ALK (CST #3633) and pan-TRK (Abcam #76291).
(§2) Stable cells were plated in a 384-well plate. Test compounds were then added in a 3-fold dilution series and incubated for 72 hours. CellTiter-Glo reagent (Promega) was added. Luminescence was measured on a plate reader. Half-maximal inhibitory concentration (ICso) was calculated from percent inhibition and inhibitor concentration using four-parameter logistic regression. Compound potency can be interpreted by binning IC50 values: bin A for high potency, 0.1 nM IC50<50 nM; bin B for medium potency, 50 nM<IC50<500 nM; and bin C for low potency, IC50>500 nM. […] Exemplary data is given in Table 4 (nd is not determined).
(§3) Ba/F3 proliferation is driven by the transduced oncogenes in the same way that cancer cell proliferation in humans is driven by the expression of equivalent oncogenes.

[1] = molecular target: Ba/F3 EML4-ALK v1 I1171N/D1203N (Homo sapiens (Human), UniProt Q9HC35+Q9UM73, D1203N/I1171N); assay: Ba/F3 cell proliferation assay, EML4-ALK v1 I1171N/D1203N; settings: for IC50: Ba/F3 stable cells, 72 hours, CellTiter-Glo
Sequence of Ba/F3 EML4-ALK v1 I1171N/D1203N (Q9UM73 other isoform, or with tags, fused parts or gaps I1171N/D1203N): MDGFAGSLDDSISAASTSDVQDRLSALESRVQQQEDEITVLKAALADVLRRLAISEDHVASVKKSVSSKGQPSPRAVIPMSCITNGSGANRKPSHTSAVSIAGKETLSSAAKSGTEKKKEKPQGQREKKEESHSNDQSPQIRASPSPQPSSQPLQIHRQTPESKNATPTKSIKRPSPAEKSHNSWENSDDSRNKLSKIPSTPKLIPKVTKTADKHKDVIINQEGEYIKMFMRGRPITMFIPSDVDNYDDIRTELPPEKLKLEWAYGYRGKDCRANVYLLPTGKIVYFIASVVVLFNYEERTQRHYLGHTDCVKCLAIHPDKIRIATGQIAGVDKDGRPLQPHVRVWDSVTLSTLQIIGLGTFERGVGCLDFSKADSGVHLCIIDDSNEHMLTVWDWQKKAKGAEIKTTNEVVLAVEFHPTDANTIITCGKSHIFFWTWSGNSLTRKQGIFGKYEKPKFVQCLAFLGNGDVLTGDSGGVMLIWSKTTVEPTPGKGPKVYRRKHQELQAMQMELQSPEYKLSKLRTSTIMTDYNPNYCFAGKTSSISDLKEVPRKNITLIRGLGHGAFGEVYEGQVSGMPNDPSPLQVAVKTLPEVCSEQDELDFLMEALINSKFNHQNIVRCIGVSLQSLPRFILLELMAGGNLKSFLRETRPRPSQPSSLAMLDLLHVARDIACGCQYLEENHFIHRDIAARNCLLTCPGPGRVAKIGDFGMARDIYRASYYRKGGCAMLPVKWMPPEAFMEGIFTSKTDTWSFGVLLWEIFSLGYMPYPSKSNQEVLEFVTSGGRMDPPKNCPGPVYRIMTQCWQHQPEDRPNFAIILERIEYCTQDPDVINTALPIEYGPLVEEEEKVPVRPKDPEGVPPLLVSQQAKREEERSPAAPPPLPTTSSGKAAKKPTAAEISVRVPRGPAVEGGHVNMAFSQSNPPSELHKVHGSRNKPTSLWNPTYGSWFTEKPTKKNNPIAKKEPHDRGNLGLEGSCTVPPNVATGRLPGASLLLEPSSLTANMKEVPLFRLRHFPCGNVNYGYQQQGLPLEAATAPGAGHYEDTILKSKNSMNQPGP
From the text: as §1, §2, §3
(§4) TRKB selectivity was calculated by dividing a compound's TRKB potency by its primary target potency (e.g., ETV6-TRKB IC50/EML4-ALK v1 IC50). Compound selectivity can be interpreted by binning ratio values: bin A for very high selectivity, ratio≥30-fold; bin B for high selectivity, ratio≥10-fold but<30; bin C for moderate selectivity, ratio≥1 but<10; and bin D for low selectivity, ratio<1. […] (nd=not determined).
Additional exemplified compounds were also tested against ALK-INDN and TRKB. The TRKB selectivity was calculated by dividing a compound's TRKB potency by its primary target potency (e.g., ETV6-TRKB IC50/EMIL4-ALK I1171N-D1203N v1 IC50). Compound selectivity can be interpreted by binning ratio values: bin AA for the selectivity with the ratio≥30-fold; bin BB for the selectivity with the ratio≥10-fold but<30; bin CC for the selectivity with the ratio≥5 but<10; bin DD for the selectivity with the ratio≥1 but<5; and bin EE for the selectivity with the ratio<1.

Ba/F3 EML4-ALK v1 I1171N = Ba/F3 EML4-ALK v1 I1171N (Homo sapiens (Human), UniProt Q9HC35+Q9UM73, I1171N); assay: Ba/F3 cell proliferation assay, EML4-ALK v1 I1171N; settings: for IC50: Ba/F3 stable cells, 72 hours, CellTiter-Glo; for ETV6-TRKB / EML4-ALK v1 I1171N: TRKB selectivity, ratio of Ba/F3 IC50 values
Sequence of Ba/F3 EML4-ALK v1 I1171N (Q9UM73 other isoform, or with tags, fused parts or gaps I1171N): as the sequence (Q9UM73 other isoform, or with tags, fused parts or gaps I1171N/D1203N) above, with N642D counted along it
From the text: as §1, §2, §3, §4

[2] = TRKB selectivity, ratio of Ba/F3 IC50 values

Sequence of Ba/F3 ETV6-TRKB (Q16620 32-822 limits assumed, stated change not applied): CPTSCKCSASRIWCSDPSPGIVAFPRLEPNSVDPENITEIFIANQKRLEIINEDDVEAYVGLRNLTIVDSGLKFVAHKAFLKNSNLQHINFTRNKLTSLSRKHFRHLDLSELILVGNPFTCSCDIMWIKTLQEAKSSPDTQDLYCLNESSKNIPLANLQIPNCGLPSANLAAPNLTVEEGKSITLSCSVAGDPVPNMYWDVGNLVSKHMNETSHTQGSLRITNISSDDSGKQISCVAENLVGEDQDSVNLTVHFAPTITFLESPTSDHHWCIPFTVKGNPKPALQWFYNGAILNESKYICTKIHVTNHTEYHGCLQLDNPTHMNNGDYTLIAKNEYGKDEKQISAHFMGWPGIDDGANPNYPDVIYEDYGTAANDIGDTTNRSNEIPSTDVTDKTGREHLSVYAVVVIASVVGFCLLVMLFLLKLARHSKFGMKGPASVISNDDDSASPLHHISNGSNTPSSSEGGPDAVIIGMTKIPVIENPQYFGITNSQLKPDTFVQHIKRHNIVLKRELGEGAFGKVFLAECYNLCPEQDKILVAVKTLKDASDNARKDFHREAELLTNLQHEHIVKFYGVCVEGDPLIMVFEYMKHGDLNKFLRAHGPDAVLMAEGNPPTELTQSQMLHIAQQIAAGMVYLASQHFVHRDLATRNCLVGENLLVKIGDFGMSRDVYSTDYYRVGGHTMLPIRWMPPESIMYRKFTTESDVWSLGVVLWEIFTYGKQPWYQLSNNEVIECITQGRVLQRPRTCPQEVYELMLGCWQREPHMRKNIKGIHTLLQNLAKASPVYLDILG

Row | Compound | IC50 (Ba/F3 ETV6-TRKB) [nM] | IC50 [1] [nM] | IC50 (Ba/F3 EML4-ALK v1 I1171N) [nM] | ETV6-TRKB / EML4-ALK v1 I1171N/D1203N [1, 2] | ETV6-TRKB / EML4-ALK v1 I1171N (Ba/F3 EML4-ALK v1 I1171N) | Selectivity for Ba/F3 EML4-ALK v1 I1171N-D1203N IC50 over Ba/F3 ETV6-TRKB IC50 ([1]; TRKB selectivity, ratio of Ba/F3 IC50 values, Table 6 bins)
1 | C[C@H]1Oc2cc(cnc2N)-c2c(n[nH]c2C#N)C(=O)c2cccnc2-c2c(F)cc(F)cc21 [Example 77, (R)-23-amino-15,17-difluoro-20-methyl-7-oxo-21-oxa-4,5,12,24-NH2 tetraazapentacyclo[20.3.1.0^2,6.0^8,13.0^14,19]hexacosa-1(25),2,5,8,10,12,14,16,18,22(26),23-undecaene-3-carbonitrile] | 50 to 500 | 0.1 to 50 | 0.1 to 50 | A (bin A for very high selectivity, ratio≥30-fold) | B (bin B for high selectivity, ratio≥10-fold but<30) | –
2 | C[C@H]1Oc2cc(cnc2N)-c2c(CC3CC3)nn(C(=O)N(C)C)c2Cc2cn(C)nc2-c2c(F)cc(F)cc21 [Example 23, (19R)-22-amino-3-(cyclopropylmethyl)-14,16-difluoro-N,N,10,19-tetramethyl-20-oxa-4,5,10,11,23-pentaazapentacyclo[19.3.1.0^2,6.0^8,12.0^13,18]pentacosa-1(24),2(6),3,8,11,13,15,17,21(25),22-decaene-5-carboxamide] | > 500 | 50 to 500 | – | A (bin A for very high selectivity, ratio≥30-fold) | – | –
3 | C[C@H]1Oc2cc(cnc2N)-c2c(C#N)nn(C)c2C(O)c2cn(C)nc2-c2c(F)cc(F)cc21 (stereo partly drawn) [Example 79, (19R)-22-amino-14,16-difluoro-7-hydroxy-5,10-dimethyl-19-methyl-20-oxa-4,5,10,11,23-pentaazapentacyclo[19.3.1.0^2,^6.0^8,^12.0^13,^18]pentacosa-1(24),2(6),3,8,11,13,15,17,21(25),22-decaene-3-carbonitrile] | > 500 | 50 to 500 | – | C (bin C for moderate selectivity, ratio≥1 but<10) | – | –
4 | C[C@H]1Oc2cc(cnc2N)-c2c(C#N)nn(C)c2C(=O)c2cn(C)nc2-c2c(F)cc(F)cc21 [Example 28, (R)-22-amino-14,16-difluoro-5,10-dimethyl-19-methyl-7-oxo-20-oxa-4,5,10,11,23-pentaazapentacyclo[19.3.1.0^2,^6.0^8,^12.0^13,^18]pentacosa-1(24),2(6),3,8,11,13,15,17,21(25),22-decaene-3-carbonitrile] | > 500 | 50 to 500 | – | A (bin A for very high selectivity, ratio≥30-fold) | – | –
5 | (R)-22-amino-14,16-difluoro-4-methyl-10,19-dimethyl-7-oxo-20-oxa-9-thia-4,5,11,23-tetraazapentacyclo[19.3.1.0^2,6.0^8,12.0^13,18]pentacosa-1(24),2,5,8(12),10,13,15,17,21(25),22-decaene-3-carbonitrile [Example 80] | 50 to 500 | 0.1 to 50 | – | B (bin B for high selectivity, ratio≥10-fold but<30) | – | –
6 | (7S,20R)-23-amino-17-fluoro-7-hydroxy-4-methyl-20-methyl-21-oxa-4,5,12,24-tetraazapentacyclo[20.3.1.0^2,6.0^8,13.0^14,19]hexacosa-1(25),2,5,8(13),9,11,14,16,18,22(26),23-undecaene-3-carbonitrile [Example 78] | > 500 | 50 to 500 | – | B (bin B for high selectivity, ratio≥10-fold but<30) | – | –
7 | C[C@H]1Oc2cc(cnc2N)-c2c(C#N)nn(C)c2C(=O)c2cccnc2-c2ccc(F)cc21 [Example 25, (R)-23-amino-17-fluoro-5-methyl-20-methyl-7-oxo-21-oxa-4,5,12,24-tetraazapentacyclo[20.3.1.0^2,^6.0^8,^13.0^14,^19]hexacosa-1(25),2(6),3,8(13),9,11,14,16,18,22(26),23-undecaene-3-carbonitrile] | > 500 | 0.1 to 50 | – | A (bin A for very high selectivity, ratio≥30-fold) | – | AA (bin AA for the selectivity with the ratio≥30-fold)

More lines, main results first:

Row | IC50 (Ba/F3 ETV6-TRKB) [nM] | IC50 [1] [nM] | IC50 (Ba/F3 EML4-ALK v1 I1171N) [nM] | Compound | ETV6-TRKB / EML4-ALK v1 I1171N/D1203N [1, 2] | ETV6-TRKB / EML4-ALK v1 I1171N (Ba/F3 EML4-ALK v1 I1171N) | Selectivity for Ba/F3 EML4-ALK v1 I1171N-D1203N IC50 over Ba/F3 ETV6-TRKB IC50 ([1]; TRKB selectivity, ratio of Ba/F3 IC50 values, Table 6 bins)
8 | 50 to 500 | 0.1 to 50 | 0.1 to 50 | Cc1nc2c(s1)C(=O)c1nn(C)c(C#N)c1-c1cnc(N)c(c1)O[C@H](C)c1cc(F)ccc1-2 [Example 73, (R)-22-amino-16-fluoro-4-methyl-10,19-dimethyl-7-oxo-20-oxa-9-thia-4,5,11,23-tetraazapentacyclo[19.3.1.0^2,^6.0^8,^12.0^13,^18]pentacosa-1(24),2,5,8(12),10,13,15,17,21(25),22-decaene-3-carbonitrile] | – | – | –
9 | > 500 | 0.1 to 50 | 50 to 500 | C[C@H]1Oc2cc(cnc2N)-c2c(nn(C)c2CC2CC2)C(=O)c2cccnc2-c2ccc(F)cc21 [Example 53, (R)-23-amino-3-(cyclopropylmethyl)-17-fluoro-4-methyl-20-methyl-21-oxa-4,5,12,24-tetraazapentacyclo[20.3.1.0^2,^6.0^8,^13.0^14,^19]hexacosa-1(25),2,5,8,10,12,14,16,18,22(26),23-undecaen-7-one] | A (bin A for very high selectivity, ratio≥30-fold) | B (bin B for high selectivity, ratio≥10-fold but<30) | –
10 | 0.1 to 50 | 0.1 to 50 | 0.1 to 50 | CCc1c2c(nn1C)C(=O)c1cccnc1-c1ccc(F)cc1[C@@H](C)Oc1cc-2cnc1N [Example 54, (R)-23-amino-3-ethyl-17-fluoro-4-methyl-20-methyl-21-oxa-4,5,12,24-tetraazapentacyclo[20.3.1.0^2,^6.0^8,^13.0^14,^19]hexacosa-1(25),2,5,8,10,12,14,16,18,22(26),23-undecaen-7-one] | B (bin B for high selectivity, ratio≥10-fold but<30) | C (bin C for moderate selectivity, ratio≥1 but<10) | –
11 | 50 to 500 | 0.1 to 50 | 0.1 to 50 | C[C@H]1Oc2cc(cnc2N)-c2c(c(C(=O)N(C)C)nn2C2CCC2)Cc2cccnc2-c2ccc(F)cc21 [Example 48, N,N-dimethyl-(R)-23-amino-3-cyclobutyl-17-fluoro-20-methyl-21-oxa-3,4,12,24-tetraazapentacyclo[20.3.1.0^2,^6.0^8,^13.0^14,^19]hexacosa-1(25),2(6),4,8(13),9,11,14,16,18,22(26),23-undecaene-5-carboxamide] | – | – | –
12 | > 500 | 50 to 500 | – | CC(C)N(C)C(=O)c1nn(CC2CC2)c2c1Cc1cn(C)nc1-c1ccc(F)cc1[C@@H](C)Oc1cc-2cnc1N [Example 37, N-isopropyl-N-methyl-(R)-22-amino-3-(cyclopropylmethyl)-16-fluoro-10-methyl-19-methyl-20-oxa-3,4,10,11,23-pentaazapentacyclo[19.3.1.0^2,^6.0^8,^12.0^13,^18]pentacosa-1(24),2(6),4,8,11,13,15,17,21(25),22-decaene-5-carboxamide] | – | – | –
13 | 50 to 500 | 0.1 to 50 | – | C[C@H]1Oc2cc(cnc2N)-c2c(nn(C)c2C#N)Oc2cccnc2-c2c(F)cc(F)cc21 [Example 61, (R)-23-amino-15,17-difluoro-4-methyl-20-methyl-7,21-dioxa-4,5,12,24-tetraazapentacyclo[20.3.1.0^2,^6.0^8,^13.0^14,^19]hexacosa-1(25),2,5,8(13),9,11,14,16,18,22(26),23-undecaene-3-carbonitrile] | – | – | –
14 | > 500 | 50 to 500 | – | Cc1cc2n(n1)-c1c(F)cc(F)cc1[C@@H](C)Oc1cc(cnc1N)-c1c(nn(C)c1C#N)C2=O [Example 68, (R)-22-amino-14,16-difluoro-4-methyl-10,19-dimethyl-7-oxo-20-oxa-4,5,11,12,23-pentaazapentacyclo[19.3.1.0^2,^6.0^8,^12.0^13,^18]pentacosa-1(24),2,5,8,10,13,15,17,21(25),22-decaene-3-carbonitrile] | – | – | –
